In one assay the target is OGG1 (Homo sapiens (Human), UniProt O15527). Kind of assay: In vitro OGG1 activity assay. It is filed as biochemical. The following applies: 800 pM OGG1 enzyme, 2 nM human APEX1, 10 nM 8-oxoA:C substrate. In short, it runs like this: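 Read-out is fluorescein fluorescence, with compounds in DMSO added first, then enzyme and substrate. OGG1 excises its substrate base from a quenched fluorophore-labelled duplex, and surplus APEX1 cuts the resulting apurinic site. The duplex then melts and fluorescence rises in proportion to glycosylase activity.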
OGG1, sequence (O15527 whole entry): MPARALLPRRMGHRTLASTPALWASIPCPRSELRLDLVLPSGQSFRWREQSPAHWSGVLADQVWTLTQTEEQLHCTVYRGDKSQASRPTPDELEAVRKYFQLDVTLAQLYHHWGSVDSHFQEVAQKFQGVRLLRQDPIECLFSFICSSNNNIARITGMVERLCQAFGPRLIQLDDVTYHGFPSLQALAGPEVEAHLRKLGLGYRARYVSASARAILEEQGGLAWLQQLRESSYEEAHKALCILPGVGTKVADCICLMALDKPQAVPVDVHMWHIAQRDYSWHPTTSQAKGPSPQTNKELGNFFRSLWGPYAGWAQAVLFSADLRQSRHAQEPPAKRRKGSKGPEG

A further assay has as its system MLE12 cells. Kind of assay: Cell viability assay in MLE12 cells (resazurin). It is filed as cell-based, mouse. The following applies: Mus musculus, MLE12, 24 h, TNF-α 20 ng/ml, resazurin added after 24 hours culture. The method, boiled down:
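MLE12 cells (7500 cells/well) were seeded onto 11-point duplicate compound dose-responses, with TNF-α (final 20 ng/ml) added after 1 hour at 37° C. After 24 hours, resazurin was added for 6 hours and resorufin fluorescence read (ex544 nm/em595 nm). EC50 values were calculated by curve fitting.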
A general note: Resazurin is reduced to fluorescent resorufin, in cell work by metabolically active cells.

A further assay concerns CCL2. Kind of assay: Mouse CCL2 assay in MLE12 cells. It is filed as cell-based. The following applies: Mus musculus, MLE12, 30 h, MLE12 cells; TNF-α 20 ng/ml; supernatant after 30 hours; HTRF; read-out: CCL2 (EC50). The method, boiled down: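 CCL2 in supernatants was quantified by two-antibody HTRF FRET, read at 620 and 665 nm after overnight RT incubation, with IC50 derived from delta ratios. Cells were SV40-transformed mouse MLE12, treated with duplicate 6-point compound series for 1 h before 30 h TNF-α (20 ng/ml final) stimulation.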

Structures are written as SMILES.

Consider `COc1cc(NC(=O)N2CCC(n3c(=O)[nH]c4c(-c5ccc(CO)nc5)cccc43)CC2)ccc1Cl` [Example 83, N-(4-Chloro-3-methoxyphenyl)-4-{4-[6-(hydroxymethyl)pyridin-3-yl]-2-oxo-2,3-dihydro-1H-1,3-benzodiazol-1-yl}piperidine-1-carboxamide], for which the concentration for half-maximal inhibition (IC50) (as a rule, the point on the concentration scale where inhibition reaches its midpoint) worked out at 0.958 µM against OGG1 and 14 µM with MLE12 cells. In addition, the EC50 – broadly, the concentration needed to bring the measured effect to its halfway point – with CCL2 came out at 34.7 µM.
Regarding `COc1cc(NC(=O)[C@H]2CC[C@@H](n3c(=O)[nH]c4c(N(C)CCN)cccc43)CC2)ccc1C` [Example 298, Cis-4-{4-[(2-aminoethyl)(methyl)amino]-2-oxo-2,3-dihydro-1H-1,3-benzodiazol-1-yl}-N-(3-methoxy-4-methylphenyl)cyclohexane-1-carboxamide], the values for the 50% inhibitory concentration (IC50) on OGG1 and in the assay on MLE12 cells were 0.012 µM and 29.2 µM, respectively. Besides, the 50% effective concentration (EC50) with CCL2 is 36.6 µM.
On to `COc1cc(NC(=O)[C@H]2CC[C@@H](n3c(=O)[nH]c4c(NCCN(C)C)cccc43)CC2)ccc1C` [Example 280, Cis-4-(4-{[2-(dimethylamino)ethyl]amino}-2-oxo-2,3-dihydro-1H-1,3-benzodiazol-1-yl)-N-(3-methoxy-4-methylphenyl)cyclohexane-1-carboxamide], for which the results for the IC50 on OGG1 and in the assay with MLE12 cells were 0.0275 µM and 16.6 µM, respectively. In addition, in the assay on CCL2, the 50% effective concentration (EC50) stood at 24.7 µM.
The corresponding values for `COc1ccc(NC(=O)[C@H]2CC[C@@H](n3c(=O)[nH]c4c(Br)cccc43)CC2)cc1F` [Example 164, (Cis)-4-(4-bromo-2-oxo-2,3-dihydro-1H-1,3-benzodiazol-1-yl)-N-(3-fluoro-4-methoxyphenyl)cyclohexane-1-carboxamide] are 0.043 µM, 12.9 µM and 33.9 µM.
On to `COc1cc(NC(=O)[C@H]2CC[C@@H](n3c(=O)[nH]c4c(N5CCC(NC(=O)OC(C)(C)C)C5)cccc43)CC2)ccc1C` (stereo partly drawn) [Example 281, tert-Butyl N-(1-{2-oxo-1-[cis-4-[(3-methoxy-4-methylphenyl)carbamoyl]cyclohexyl]-2,3-dihydro-1H-1,3-benzodiazol-4-yl}pyrrolidin-3-yl)carbamate], for which the IC50 against OGG1 is 0.149 µM; in the assay with MLE12 cells, 1.83 µM. The EC50 with CCL2 was 8.83 µM.
In the same order, the values of `CCNC(=O)c1cnn(-c2cccc3c2[nH]c(=O)n3C2CCN(C(=O)Nc3ccc(I)cc3)CC2)c1` [Example 87, 4-{4-[4-(Ethylcarbamoyl)-1H-pyrazol-1-yl]-2-oxo-2,3-dihydro-1H-1,3-benzodiazol-1-yl}-N-(4-iodophenyl)piperidine-1-carboxamide] are 0.471 µM, 5.25 µM and 6.48 µM.
Turning to `COc1c(F)cc(NC(=O)[C@H]2CC[C@@H](n3c(=O)[nH]c4c(Br)cccc43)CC2)cc1F` [Example 160, (Cis)-4-(4-bromo-2-oxo-2,3-dihydro-1H-1,3-benzodiazol-1-yl)-N-(3,5-difluoro-4-methoxyphenyl)cyclohexane-1-carboxamide], the values for the IC50 on OGG1 and in the assay on MLE12 cells were 0.081 µM and 8.18 µM, respectively. Further, the EC50 in the assay on CCL2 was found to be 25.6 µM.
In the same order, the values of `CN(C)CCNC(=O)c1cnn(-c2cccc3c2[nH]c(=O)n3C2CCN(C(=O)Nc3ccc(I)cc3)CC2)c1` [Example 89, 4-(4-(4-((2-(Dimethylamino)ethyl)carbamoyl)-1H-pyrazol-1-yl)-2-oxo-2,3-dihydro-1H-benzo[d]imidazol-1-yl)-N-(4-iodophenyl)piperidine-1-carboxamide 2,2,2-trifluoroacetate] are 0.09 µM, 25.1 µM and 47.1 µM.
For the molecule `COc1cc(NC(=O)[C@H]2CC[C@@H](n3c(=O)[nH]c4c(C(=O)N5CCC[C@H]5CN5CCCC5)cccc43)CC2)ccc1C` [Example 271, Cis-N-(3-methoxy-4-methylphenyl)-4-{2-oxo-4-[(2S)-2-[(pyrrolidin-1-yl)methyl]pyrrolidine-1-carbonyl]-2,3-dihydro-1H-1,3-benzodiazol-1-yl}cyclohexane-1-carboxamide], the half-inhibitory concentration (IC50) against OGG1 amounted to 0.056 µM; in the assay on MLE12 cells it was 4.65 µM. In the assay with CCL2, the EC50 stood at 9.45 µM.
In the same order, the values of `O=c1[nH]c2c(Br)cccc2n1[C@H]1CC[C@@H](C(=O)Nc2ccc(Cl)cc2Cl)CC1` [Example 131, (Cis)-4-(4-bromo-2-oxo-2,3-dihydro-1H-1,3-benzodiazol-1-yl)-N-(2,4-dichlorophenyl)cyclohexane-1-carboxamide] are 0.676 µM, 17.4 µM and 39.2 µM.
The corresponding values for `COc1cc(NC(=O)[C@H]2CC[C@@H](n3c(=O)[nH]c4c(-c5cccc(OCCN(C)C)c5)cccc43)CC2)ccc1C` [Example 225, Cis-4-(4-{3-[2-(dimethylamino)ethoxy]phenyl}-2-oxo-2,3-dihydro-1H-1,3-benzodiazol-1-yl)-N-(3-methoxy-4-methylphenyl)cyclohexane-1-carboxamide] are 0.0335 µM, 1.71 µM and 3.13 µM.
The corresponding values for `COc1cc(NC(=O)[C@H]2CC[C@@H](n3c(=O)[nH]c4c(C5=CCN(C)CC5)cccc43)CC2)ccc1C` [Example 312, Cis-N-(3-methoxy-4-methylphenyl)-4-[4-(1-methyl-1,2,3,6-tetrahydropyridin-4-yl)-2-oxo-2,3-dihydro-1H-1,3-benzodiazol-1-yl]cyclohexane-1-carboxamide] are 0.00294 µM, 11 µM and 28.5 µM.
`COc1cc(NC(=O)N2CCC(n3c(=O)[nH]c4c(-c5ccc(CO)nc5)cccc43)CC2)ccc1C` [Example 82, 4-{4-[6-(Hydroxymethyl)pyridin-3-yl]-2-oxo-2,3-dihydro-1H-1,3-benzodiazol-1-yl}-N-(3-methoxy-4-methylphenyl)piperidine-1-carboxamide]: the values for the IC50 at OGG1 and in the assay on MLE12 cells were 1 µM and 17.7 µM, respectively. In addition, the EC50 with CCL2 was 30.8 µM.
As to `COc1ccc(NC(=O)[C@H]2CC[C@@H](n3c(=O)[nH]c4c(Br)cccc43)CC2)cc1Cl` [Example 123, (Cis)-4-(4-bromo-2-oxo-2,3-dihydro-1H-1,3-benzodiazol-1-yl)-N-(3-chloro-4-methoxyphenyl)cyclohexane-1-carboxamide], the IC50 on OGG1 amounted to 0.026 µM; in the assay on MLE12 cells it was 10 µM. In addition, in the assay on CCL2, the half-maximal effective concentration (EC50) was 24.2 µM.
Take `COc1cc(NC(=O)[C@H]2CC[C@@H](n3c(=O)[nH]c4c(NC(=O)[C@@H]5C[C@@H](O)CN5)cccc43)CC2)ccc1C` [Example 286, (2S,4R)-4-Hydroxy-N-{2-oxo-1-[cis-4-[(3-methoxy-4-methylphenyl)carbamoyl]cyclohexyl]-2,3-dihydro-1H-1,3-benzodiazol-4-yl}pyrrolidine-2-carboxamide]: the half-maximal inhibitory concentration (IC50) came out at 0.0181 µM at OGG1 and 20.3 µM with MLE12 cells. Besides, the EC50 in the assay with CCL2 is greater than 33 µM.
Take `Cn1ncc2cc(NC(=O)[C@H]3CC[C@@H](n4c(=O)[nH]c5c(Br)cccc54)CC3)ccc21` [Example 171, (Cis)-4-(4-bromo-2-oxo-2,3-dihydro-1H-1,3-benzodiazol-1-yl)-N-(1-methyl-1H-indazol-5-yl)cyclohexane-1-carboxamide]: the IC50 came out at 0.211 µM at OGG1 and 17.5 µM in the assay with MLE12 cells. In addition, the 50% effective concentration (EC50) in the assay on CCL2 was found to be 41.1 µM.
Consider `COc1cc(NC(=O)[C@H]2CC[C@@H](n3c(=O)[nH]c4c(Cl)cccc43)CC2)ccc1C` [Example 146, (Cis)-4-(4-chloro-2-oxo-2,3-dihydro-1H-1,3-benzodiazol-1-yl)-N-(3-methoxy-4-methylphenyl)cyclohexane-1-carboxamide], for which the figures for the IC50 against OGG1 and with MLE12 cells were 0.027 µM and 9.72 µM, respectively. Moreover, the half-maximal effective concentration (EC50) with CCL2 came out at 29.6 µM.
The corresponding values for `COc1cc(NC(=O)[C@H]2CC[C@@H](n3c(=O)[nH]c4c(N5CCC(N)C5)cccc43)CC2)ccc1C` (stereo partly drawn) [Example 282, Cis-4-[4-(3-aminopyrrolidin-1-yl)-2-oxo-2,3-dihydro-1H-1,3-benzodiazol-1-yl]-N-(3-methoxy-4-methylphenyl)cyclohexane-1-carboxamide] are 0.0101 µM, 27.5 µM and 28.6 µM.
The corresponding values for `O=C(Nc1ccc(I)cc1)N1CCC(n2c(=O)[nH]c3c(-n4cncn4)cccc32)CC1` [Example 23, N-(4-iodophenyl)-4-[2-oxo-4-(1H-1,2,4-triazol-1-yl)-2,3-dihydro-1H-1,3-benzodiazol-1-yl]piperidine-1-carboxamide] are 0.728 µM, 19.9 µM and 29 µM.
With `COc1cc(NC(=O)[C@H]2CC[C@@H](n3c(=O)[nH]c4c(N5CC[C@H](N(C)C)C5)cccc43)CC2)ccc1C` [Example 295, Cis-4-{4-[(3S)-3-(dimethylamino)pyrrolidin-1-yl]-2-oxo-2,3-dihydro-1H-1,3-benzodiazol-1-yl}-N-(3-methoxy-4-methylphenyl)cyclohexane-1-carboxamide], the IC50 turned out to be 0.00962 µM on OGG1 and 10.4 µM with MLE12 cells. In addition, the EC50 in the assay on CCL2 turned out to be 11.1 µM.
In the same order, the values of `O=C(Nc1ccc(Br)c(Cl)c1)N1CCC(n2c(=O)[nH]c3c(Br)cccc32)CC1` [Example 49, 4-(4-Bromo-2-oxo-2,3-dihydro-1H-1,3-benzodiazol-1-yl)-N-(4-bromo-3-chlorophenyl)piperidine-1-carboxamide] are 0.379 µM, 5.4 µM and 15.2 µM.

For the origin of these results see US11970474B2, “Substituted benzodiazoles and use thereof in therapy” (THOMAS HELLEDAYS STIFTELSE FÖR MEDICINSK FORSKNING, priority 2018, dated 2024).
